# Test results reported in US20040096356A1, “Assay device for determining analytes in a liquid dairy product” (priority 1997, published 2004).
# Target: T1, enzyme R39 (soluble exocellular D-alanyl-D-alanine carboxypeptidase produced by Actinomadura R39) (Actinomadura sp., UniProt P39045)
# T1 construct: soluble exocellular D-alanyl-D-alanine carboxypeptidase produced by Actinomadura R39, obtained by the procedure described in J.-M. Frere et al; made in house; host or cells: Actinomadura R39 (natural producer, secreted enzyme)
# T1 sequence (P39045 50-515): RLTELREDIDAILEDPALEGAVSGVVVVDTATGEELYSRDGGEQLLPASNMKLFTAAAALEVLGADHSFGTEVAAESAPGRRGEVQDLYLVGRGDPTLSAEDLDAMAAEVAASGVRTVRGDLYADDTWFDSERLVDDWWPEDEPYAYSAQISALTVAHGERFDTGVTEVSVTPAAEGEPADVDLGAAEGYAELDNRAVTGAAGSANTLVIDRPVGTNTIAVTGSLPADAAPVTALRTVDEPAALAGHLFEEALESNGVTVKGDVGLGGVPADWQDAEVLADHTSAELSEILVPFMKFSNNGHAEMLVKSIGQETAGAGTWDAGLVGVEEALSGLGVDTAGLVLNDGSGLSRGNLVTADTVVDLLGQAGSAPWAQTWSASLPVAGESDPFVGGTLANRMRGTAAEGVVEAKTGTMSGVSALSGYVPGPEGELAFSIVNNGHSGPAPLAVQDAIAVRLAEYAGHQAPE
# Assay: Test 2, sensitive test (7 minutes): strip test for β-lactam antibiotics in milk using enzyme R39
# Format: binding
# Conditions: for Intensity 1st band: scale 0 to 10, reference band 6, 47° C., 5 min incubation + 2 min migration
# Description: The identifier used in this example is soluble exocellular D-alanyl-D-alanine carboxypeptidase produced by Actinomadura R39, obtained by the procedure described in J.-M. Frere et al., Antimicrobial Agents and Chemotherapy, 18(4), 506-510 (1980).
# 250 μl of an aqueous solution of enzyme R39 having a concentration of 1 mg/ml are dialysed for 24 hours against 500 ml of HNM buffer (Hepes 10 mM, pH 8, NaCl 10 mM, MgCl2 5 mM). To this dialysed solution of enzyme R39 are then added 2 ml of bicarbonate buffer (0.1 M sodium bicarbonate, pH 9) and 250 μl of a solution of N-hydroxysuccinimide 6-(biotinamido)caproic ester having a concentration of 5 mg/ml in anhydrous DMF. This solution is stirred gently in the LABINCO stirrer for tubes on a rotary axis (available from VEL, Belgium) at a rate of 2 revolutions/minute for 3 hours at room temperature and away from light. The solution thus obtained is dialysed against the HNM buffer ([…]) for 24 hours. In this way a solution of biotinylated enzyme R39 is obtained which is diluted in HNM-BSA buffer (Hepes 500 mM; pH 8, NaCl 500 mM, MgCl2 250 mM, BSA 10 mg/ml) to a concentration of 100 μg of enzyme R39 per ml of buffer. This solution is stored at −20° C.
# As the marker use is made of particles of gold having a diameter of 40 nm on which a goat anti-biotin antibody has been deposited in the form of suspensions in a 2 mM aqueous sodium tetraborate solution, with a pH of 7.2, stabilized by 0.1% of sodium azide (available from British Biocell (Ref. GAB40)). The optical density of these suspensions at 520 nm is approximately 10 and the protein concentration is approximately 24 μg/ml.
# The biotinylated enzyme R39 solution prepared in Example 2.2.1 is diluted 50 times with the HNM-BSA buffer (Hepes 500 mM, pH 8, NaCl 500 mM, MgCl2 250 mM, BSA 10 mg/ml). At room temperature, 17.5 parts by volume of this dilute biotinylated enzyme R39 solution, 9.27 parts by volume of the gold particle suspension used to label the enzyme R39 and 6 parts by volume of reference gold particle suspension are mixed (see Example 2.3).
# The first capture substance makes it possible to fix the identifiers coupled with the free markers present in excess relative to the quantity of antibiotic present in the sample.
# Assay devices containing membranes (2), (3) and (4) are used, assembled in accordance with the procedure described in Example 1.1. The membrane (3) of these devices carries on the proximal side the capture substance described in Example 2.4.1. and on the distal side the capture substance described in Example 2.4.2. The capture substances were deposited in accordance with the procedure described in Example 1.2.
# Six samples of milk are prepared, containing 0; 2; 2.5; 3; 4 and 5 ppb, respectively, of penicillin G. Each of these solutions is then analysed as follows.
# An aliquot is taken of 200 μl of milk sample and 32.8 μl of solution B prepared in Example 2.2.3, and is placed in an Eppendorf tube. This mixture is incubated at 47° C. for 5 minutes. An assay device is then placed vertically in the Eppendorf tube such that the first end of the assay device is in contact with the mixture. The mixture is allowed to migrate over the assay device while the assembly is incubated at 47° C. for 2 minutes.
# An intensity value ranging from 0 to 10 is awarded to the bands detected, the value 10 being given to the most intense band and the value 0 being given to the least intense band. On this scale, a value 6 is awarded to the reference band. The intensity of the signal observed in the first detection band is inversely proportional to the quantity of penicillin G present in the sample.
# In this example, the test is considered to be positive when the first band has an intensity which is lower than that of the reference band. The results shown in Table 2 indicate that this test makes it possible to detect in 7 minutes down to 2.5 ppb of penicillin G in a milk sample.
compound,measurement,setting,value
"CC1(C)S[C@@H]2[C@H](NC(=O)Cc3ccccc3)C(=O)N2[C@H]1C(=O)O [Penicillin G, penicillin G]",Intensity 1st band,2 ppb penicillin G in milk,7
same,Intensity 1st band,2.5 ppb penicillin G in milk,5
same,Intensity 1st band,3 ppb penicillin G in milk,4
same,Intensity 1st band,4 ppb penicillin G in milk,1
same,Intensity 1st band,5 ppb penicillin G in milk,0
same,lowest concentration detected in a milk sample,"in 7 minutes, positive when first band is less intense than reference band",2.5 ppb
